Laboratory results published in patent publication EP2108954A1, “A test system for detecting intracellular cyclic nucleotide level and methods and uses thereof” (Max-Planck-Gesellschaft zur Förderung der Wissenschaften …, priority 2008, dated 2009).

Key:
Or22a and Or83b [1] = target: T1, Or22a and Or83b (Drosophila melanogaster, UniProt P81909+Q9VNB5); test: Radioreceptor assay of cAMP content of HEK293 cells expressing Or22a and Or83b; assay type: cell-based; settings: 100 nM Etb for 15 min; n = 3 experiments; control 1.28 ± 0.06
T1 construct: expressed in transfected cells; host or cells: HEK293
T1 sequence (P81909 1-397): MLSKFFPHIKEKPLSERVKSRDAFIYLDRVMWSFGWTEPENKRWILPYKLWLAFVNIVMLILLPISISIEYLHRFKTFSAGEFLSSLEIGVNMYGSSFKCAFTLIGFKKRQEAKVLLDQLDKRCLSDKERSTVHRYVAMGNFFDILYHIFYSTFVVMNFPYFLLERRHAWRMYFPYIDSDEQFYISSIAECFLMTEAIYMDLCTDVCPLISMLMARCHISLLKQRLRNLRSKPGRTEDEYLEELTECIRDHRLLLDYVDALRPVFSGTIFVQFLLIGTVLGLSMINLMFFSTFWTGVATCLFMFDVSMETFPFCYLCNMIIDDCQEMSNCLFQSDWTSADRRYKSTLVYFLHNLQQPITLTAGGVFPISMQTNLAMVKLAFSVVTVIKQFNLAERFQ
T1 sequence (Q9VNB5 1-486): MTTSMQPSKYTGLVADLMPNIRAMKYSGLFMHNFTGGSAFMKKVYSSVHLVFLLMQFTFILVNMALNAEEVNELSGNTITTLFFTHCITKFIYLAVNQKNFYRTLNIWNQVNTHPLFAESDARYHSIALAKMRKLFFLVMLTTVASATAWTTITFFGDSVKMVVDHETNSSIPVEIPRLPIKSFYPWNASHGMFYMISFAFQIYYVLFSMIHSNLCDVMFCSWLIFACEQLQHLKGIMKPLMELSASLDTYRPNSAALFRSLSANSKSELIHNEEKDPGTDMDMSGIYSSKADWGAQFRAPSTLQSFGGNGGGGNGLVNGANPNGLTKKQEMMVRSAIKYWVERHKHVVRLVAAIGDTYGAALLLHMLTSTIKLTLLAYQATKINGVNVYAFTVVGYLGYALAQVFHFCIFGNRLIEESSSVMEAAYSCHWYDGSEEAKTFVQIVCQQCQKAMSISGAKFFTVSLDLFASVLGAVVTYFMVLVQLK
Protocol: Monolayers of HEK293 cells were incubated for 30 min in HEPES Ringer's buffer containing 1 mM isobutylmethylxanthine and stimulated with 100 nM Etb for 15 min. The reaction was stopped with 96% ethanol, and after evaporation, 50 mM Tris/4 mM EDTA (pH 7.5) was added.

Or22a and Or83b [2] = target: T1, Or22a and Or83b; test: Calcium imaging (fura-2) in HEK293 cells coexpressing Or22a and Or83b; assay type: cell-based; settings: dependent on Etb concentration and on extracellular Ca^2+
Protocol: Free intracellular Ca^2+ concentration ([Ca^2+]i) was determined by fura-2 fluorescence as described (Messutat et al., Cell Calcium 30, 199-211. (2001)). In brief, cells were loaded with fura-2 by incubation in bath solution containing 2 µM fura-2/acetomethylester for 20 min. Free intracellular Ca^2+ concentration ([Ca^2+]i) was determined with the fluorescence ratio method. Excitation of fura-2 at 340 and 380 nm was performed with a monochromator (Polychrome II, T.I.L.L. Photonics, Gräfelfing, Germany) coupled via an epifluorescence condenser into an Axioskop FS microscope (Carl Zeiss, Jena, Germany) with a water immersion objective (LUMPFL 40xW/IR/0.8; Olympus, Hamburg, Germany). […] [Ca^2+]i was calculated according to the equation [Ca^(2 +)]i = Keff (R-Rmin)/(Rmax-R). […] Keff, Rmin, and Rmax were determined using HEK293 cells permeabilized with 2 µM ionomycin and three solutions with different concentrations of free Ca^2+ (Ca^2+ free; 5 mM Ca^2+; 500 nM Ca^2+; the composition of the 500 nM solution was calculated with WEBMAXC v.2.20) (Patton et al., Cell Calcium 35, 427-31 (2004)). […]
Fluorescence images were acquired using a cooled CCD camera controlled by TILLVision 4.0 software (T.I.L.L. Photonics). […] Image pairs were obtained by excitation for 100 ms at 340 nm and 380 nm; background fluorescence was subtracted.

hHCN2 = test: Gs coupling test: hHCN2 current in HEK293 cells coexpressing ORs and hHCN2; assay type: cell-based, human; settings: 2 min 100 nM Etb; Or22a, Or83b and hHCN2 coexpressed
Protocol: (§1) HEK293 cells were cultured as described by Wicher and colleagues (Wicher et al., J. Biol. Chem. 281, 3227-36 (2006)). In brief, HEK293 cells were cultured at a density of ∼2*10^4 per 35-mm dish and transfected with 1 µg pcDNA3-DOR22a-GFP and 1 µg pcDNA3-DOR83b-GFP (Neuhaus, et al., Nat. Neurosci. 8, 15-17 (2005); DNAs were a generous gift of Dr. E. Neuhaus and Dr. H. Hatt) using Roti-Fect transfection kit (Roth, Karlsruhe, Germany). In some experiments we transfected cells with pcDNA3-DOR22a-GFP or pcDNA3-DOR83b-GFP alone. We also examined the properties of DOR47a, which was cloned, using standard molecular biology methods into a pcDNA3.1(-) expression vector. To test for putative G-protein coupling, cells were transfected with the respective OR-DNA together with 1.5 µg hHCN2/pcDNA3 (provided by M. Biel, Munich, Germany), with 1 µg hKCNQ4/pcDNA3.1 or with 1 µg hCNGA2/pCMV6-XL4 (Origene, Rockville, MD, USA).
Ion currents in HEK293 cells were measured with the patch-clamp technology as described (Wicher et al, J. Biol. Chem. 281, 3227-36 (2006)). In brief, ion currents in HEK293 cells were measured at room temperature using whole-cell patch-clamp with appropriate compensation of series resistance and of capacitive currents. Additional experiments were performed in the outside-out configuration. […]

hCNGA2 = test: Gs coupling test: hCNGA2 whole-cell current in HEK293 cells; assay type: cell-based, human
Protocol: as §1
Ion currents in HEK293 cells were measured with the patch-clamp technology as described (Wicher et al, J. Biol. Chem. 281, 3227-36 (2006)). In brief, ion currents in HEK293 cells were measured at room temperature using whole-cell patch-clamp with appropriate compensation of series resistance and of capacitive currents. Additional experiments were performed in the outside-out configuration. Current measurements and data acquisition were performed using an EPC9 patch-clamp amplifier controlled by PatchMaster software (both HEKA Elektronik, Lambrecht, Germany). Patch-clamp pipettes were fabricated from borosilicate capillaries. Pipettes for whole-cell recordings had resistances of 2-4 MΩ for excised-patch recordings the pipette resistance was up to 15 MΩ.

With CCCC(=O)OCC [Etb, ethyl butyrate] the cAMP level (Or22a and Or83b [1]) was 1.65 ± 0.10 pmol/mg protein, the “intracellular Ca^2+ concentration ([Ca^2+]i)” value (Or22a and Or83b [2]) was “increased intracellular Ca^2+ concentration” and the “effect on hHCN2 current time course” value (hHCN2) was “accelerated the current time course”. For the same compound, the “effect on CNGA2 current” value (hCNGA2; cells expressing Or22a plus Or83b or Or22a alone) was “concentration-dependent rise in CNGA2 current”, the “Hill coefficient of Etb-induced currents” value (hCNGA2; cells expressing hCNGA2 and Or22a, -80 mV, n = 5) was 0.54 and the EC50 (hCNGA2; cells expressing hCNGA2 and Or22a, -80 mV, normalized to controls, n = 5, read-out: EC50 of Etb-induced currents) was 3 nM. For the same compound, the “response of hCNGA2 current” value (hCNGA2; cells solely expressing CNGA2, Etb 100 nM, forskolin 10 µM, -80 mV) was “did not respond”.
